Assay results taken from US10329309B2, “3-(3H-imidazo[4,5-B]pyridin-2-yl)-1H-pyrazolo[4,3-B]pyridines and therapeutic uses thereof” (Samumed, LLC, priority 2015, dated 2019).

How the values were obtained:
Assay type in all cases: cell-based
[1] = system: primary human fibroblasts derived from IPF patients (LL29 cells), α-smooth muscle actin (αSMA); assay: Inhibition of the fibrotic process: TGF-β1-treated primary human fibroblasts from IPF patients, αSMA staining; conditions: Fibroblast, 96 h, 4 days; for EC50: LL29 fibroblasts from IPF patients, TGF-β1 20 ng/mL, inhibition of fibrotic process; for inhibition at 10 µM: LL29 fibroblasts, TGF-β1 treated, read-out: percent inhibition at 10 μM (given for EC50 of >10 μM)
Summary of the method: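 LL29 cells plated in F12 with 1% FBS, compounds added as 11-point 1:2 series (10 μM to 1.87 nM, 0.1% DMSO), then TGF-β1 20 ng/mL; 4 days at 37 °C. Fixed, αSMA immunostained, imaged; SYTOX-positive cells excluded. % αSMA-positive cells normalized to TGF-β1 wells; EC50 by non-linear regression, or % inhibition at 10 μM.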

[2] = system: IL-6 (THP-1 cells); assay: Inhibition of IL-6 in LPS-stimulated THP-1 monocytes (HTRF); conditions: Homo sapiens; for EC50: LPS 500 ng/mL, IL-6 by HTRF; for inhibition at 10 µM: LPS stimulated, IL-6, at 10 μM, read-out: percent inhibition at 10 μM (given for EC50 of >10 μM)
Summary of the method: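 THP-1 cells, serum-starved in 1% FBS for 24 h, were pre-incubated 2 h with compound (10-point, 1:3 from 10 μM, 0.1% DMSO), then stimulated with 500 ng/mL LPS for 22 h at 37 °C. IL-6 was quantified by HTRF 665/620 ratio. EC50 was fitted from DMSO-normalized data; above 10 μM, % inhibition at 10 μM is given.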

[3] = system: SW480 colon cancer cells; assay: Cell viability assay (CellTiter-Blue), four days; conditions: Homo sapiens, 96 h; for EC50: CellTiter-Blue cell viability; for inhibition at 10 µM: read-out: percent inhibition at 10 μM (given for EC50 of >10 μM)
Summary of the method: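 SW480 cells (~2×10^3 per well) were exposed to compound for four days at 37 °C/5% CO2, using 8-point 1:3 dilutions from 10 μM to 0.0045 μM in duplicate. Viability was read by resazurin reduction (CellTiter-Blue, ~3 h, Ex 560/Em 590 nm). EC50 came from non-linear regression; above 10 μM, percent inhibition at 10 μM is given.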

Row | Compound | EC50 [2] | EC50 [3] | EC50 [1] | inhibition at 10 µM [3] | inhibition at 10 µM [2] | inhibition at 10 µM [1]
1 | COc1cccc(-c2ccnc3[nH]c(-c4n[nH]c5ccc(-c6cncc(OC7CCNCC7)c6)nc45)nc23)c1 [Compound 1025, 3-(7-(3-Methoxyphenyl)-3H-imidazo[4,5-b]pyridin-2-yl)-5-(5-(piperidin-4-yloxy)pyridin-3-yl)-1H-pyrazolo[4,3-b]pyridine] | > 10 µM | > 10 µM | 2.91 µM | 15.8% | 26.5% | –
2 | COc1cccc(-c2ccnc3[nH]c(-c4n[nH]c5ccc(-c6cncc(O)c6)nc45)nc23)c1 [Compound 1030, 5-(3-(7-(3-Methoxyphenyl)-3H-imidazo[4,5-b]pyridin-2-yl)-1H-pyrazolo [4,3-b]pyridin-5-yl)pyridin-3-ol] | > 10 µM | > 10 µM | > 10 µM | 3% | 40.9% | 48%
3 | c1cc(-c2ccc3c(c2)OCO3)c2nc(-c3n[nH]c4ccc(C5CCNCC5)nc34)[nH]c2n1 [Compound 1108, 3-(7-(Benzo[d][1,3]dioxol-5-yl)-3H-imidazo[4,5-b]pyridin-2-yl)-5-(piperidin-4-yl)-1H-pyrazolo[4,3-b]pyridine] | > 10 µM | > 10 µM | > 10 µM | 0% | 30.1% | 0%
4 | C1=C(c2ccc3[nH]nc(-c4nc5c(-c6ccc7c(c6)OCO7)ccnc5[nH]4)c3n2)CCNC1 [Compound 1109, 3-(7-(Benzo[d][1,3]dioxol-5-yl)-3H-imidazo[4,5-b]pyridin-2-yl)-5-(1,2,3,6-tetrahydropyridin-4-yl)-1H-pyrazolo[4,3-b]pyridine] | > 10 µM | > 10 µM | 6.2 µM | 10.9% | 20.5% | –
5 | Cn1cc(-c2ccc3[nH]nc(-c4nc5c(-c6ccc(F)cc6)ccnc5[nH]4)c3n2)c(CO)n1 [Compound 1129, (4-(3-(7-(4-Fluorophenyl)-3H-imidazo[4,5-b]pyridin-2-yl)-1H-pyrazolo[4,3-b]pyridin-5-yl)-1-methyl-1H-pyrazol-3-yl)methanol] | > 10 µM | > 10 µM | 0.342 µM | 16.9% | 24.8% | –
6 | Cn1cc(-c2ccc3[nH]nc(-c4nc5c(N6CCCCC6)ccnc5[nH]4)c3n2)c(CO)n1 [Compound 1134, (1-Methyl-4-(3-(7-(piperidin-1-yl)-3H-imidazo[4,5-b]pyridin-2-yl)-1H-pyrazolo[4,3-b]pyridin-5-yl)-1H-pyrazol-3-yl)methanol] | > 10 µM | > 10 µM | 0.149 µM | 18.1% | 12.6% | –
7 | Cn1cc(-c2ccc3[nH]nc(-c4nc5c(-c6ccc7c(c6)OCO7)ccnc5[nH]4)c3n2)c(CO)n1 [Compound 1152, (4-(3-(7-(Benzo[d][1,3]dioxol-5-yl)-3H-imidazo[4,5-b]pyridin-2-yl)-1H-pyrazolo[4,3-b]pyridin-5-yl)-1-methyl-1H-pyrazol-3-yl)methanol] | > 10 µM | > 10 µM | 0.317 µM | 28.2% | 28.4% | –

Now from value to compound, other results behind:

Row | EC50 [2] | EC50 [3] | Compound | EC50 [1] | inhibition at 10 µM [3] | inhibition at 10 µM [2] | inhibition at 10 µM [1]
8 | 0.036 µM | > 10 µM | CS(=O)(=O)NCc1cc(F)cc(-c2ccnc3[nH]c(-c4n[nH]c5ccc(-c6cncc(NC(=O)CC7CCNCC7)c6)nc45)nc23)c1 [Compound 769, N-(5-(3-(7-(3-Fluoro-5-(methylsulfonamidomethyl)phenyl)-3H-imidazo[4,5-b]pyridin-2-yl)-1H-pyrazolo[4,3-b]pyridin-5-yl)pyridin-3-yl)-2-(piperidin-4-yl)acetamide] | 4.46 µM | 8.5% | – | –
9 | > 10 µM | 9.87 µM | CN(C)CCNc1cc(F)cc(-c2ccnc3[nH]c(-c4n[nH]c5ccc(-c6cncc(OCCN7CCCC7)c6)nc45)nc23)c1 [Compound 786, N^1-(3-Fluoro-5-(2-(5-(5-(2-(pyrrolidin-1-yl)ethoxy)pyridin-3-yl)-1H-pyrazolo[4,3-b]pyridin-3-yl)-3H-imidazo[4,5-b]pyridin-7-yl)phenyl)-N^2,N^2-dimethylethane-1,2-diamine] | 2.9 µM | – | 0% | –
10 | > 10 µM | 4.37 µM | CN(C)CCNc1cc(F)cc(-c2ccnc3[nH]c(-c4n[nH]c5ccc(-c6cnccn6)nc45)nc23)c1 [Compound 792, N^1-(3-Fluoro-5-(2-(5-(pyrazin-2-yl)-1H-pyrazolo[4,3-b]pyridin-3-yl)-3H-imidazo[4,5-b]pyridin-7-yl)phenyl)-N^2,N^2-dimethylethane-1,2-diamine] | 2.24 µM | – | 23.3% | –
